Entries after “also recorded” stand apart in the source; their conditions may differ.
Legend:
[1] = Bulk stability of Pattern A (XRPD, HPLC, color) after 1 week storage; assay type: physicochemical; settings: for Bulk (XRPD) form after storage / Color after storage / Bulk (HPLC) purity after storage: Solid state, 1 week; for Bulk (HPLC) purity after storage: initial purity 99.9%
Procedure: Bulk stability of Pattern A was evaluated at 25° C./92% RH in an open container, at 40° C./75% RH in an open container, and at 60° C. in a tight container over 1 week. […] Pattern A crystalline polymorph was placed at 25° C./92% RH in an open container, at 40° C./75% RH in an open container, and at 60° C. in a closed container for 1 week. Samples after the stress were characterized by XRPD and HPLC and inspected for color change.

[2] = Compression simulation experiments (hydraulic press, XRPD); assay type: physicochemical; settings: for Comments (crystallinity after compression) / XRPD after compression: 5 minutes
Procedure: (§1) Feasibility of formulation process for Pattern A was evaluated by compression, grinding, and granulation simulation experiments. […] About 10 mg of Pattern A crystalline polymorph was compressed for 5 minutes under 5 MPa and 10 MPa with a hydraulic press. Potential form change and degree of crystallinity were evaluated by XRPD.

[3] = Water sorption and desorption (hygroscopicity) by dynamic vapor sorption (DVS); assay type: physicochemical; settings: 25° C.
Procedure: Hygroscopicity of Pattern A was evaluated by dynamic vapor sorption (DVS) test at 25° C. with a cycle of 40→0→95→0→40% RH at a rate of change in mass per time unit of 0.002% per minute. […] It absorbed about 1.2% water at 80% RH and 3.1% water at 95% RH at 25° C. (FIG. 8). […] Water sorption and desorption behavior of Pattern A crystalline polymorph was investigated by DVS at 25° C. with a cycle of 40-0-95-0-40% RH, dm/dt 0.002, minimum equilibration time 60 min, and maximum equilibration time 360 min. XRPD was measured after the DVS test to determine form change.

[4] = Dry grinding simulation experiments (mortar and pestle, XRPD); assay type: physicochemical
Procedure: as §1, with “20” for “10”, “ground manually” for “compressed for 5 minutes under 5 MPa and 10 MPa”, “mortar and pestle for 1, 3, and 5 min.” for “hydraulic press.”

[5] = Wet granulation simulation experiments (XRPD); assay type: physicochemical
Procedure: Feasibility of formulation process for Pattern A was evaluated by compression, grinding, and granulation simulation experiments. […] Water or ethanol was added drop wise to about 20 mg of Pattern A crystalline polymorph until the sample was wetted sufficiently. Wet sample was ground gently with a mortar and pestle. Post granulation sample was dried under ambient condition for 3 min. Potential form change and degree of crystallinity were evaluated by XRPD.

[6] = target: T1, human LPAR1 (Homo sapiens, UniProt Q92633); experiment: In vitro functional assay of lysophosphatidic acid receptor 1 activity (calcium flux, Fluo-4 NW, LPA 18:1 at EC80); assay type: cell-based; settings: B103 cells stably expressing human LPAR1
T1 construct: by own knowledge a rat neuroblastoma line
T1 sequence (Q92633 whole entry): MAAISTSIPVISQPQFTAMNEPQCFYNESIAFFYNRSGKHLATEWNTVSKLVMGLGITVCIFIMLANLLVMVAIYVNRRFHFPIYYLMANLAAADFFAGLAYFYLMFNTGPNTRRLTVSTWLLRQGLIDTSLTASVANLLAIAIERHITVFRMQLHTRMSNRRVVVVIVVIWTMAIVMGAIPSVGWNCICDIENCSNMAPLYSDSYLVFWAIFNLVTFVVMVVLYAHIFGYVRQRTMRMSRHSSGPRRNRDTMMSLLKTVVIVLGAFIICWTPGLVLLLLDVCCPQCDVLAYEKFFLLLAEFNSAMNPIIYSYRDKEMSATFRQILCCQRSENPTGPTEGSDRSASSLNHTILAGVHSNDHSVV
Procedure: Primary compound plates were prepared in 100% DMSO (Sigma-Aldrich), secondary compound plates were prepared at 10× concentration in DMEM (Invitrogen), and tertiary compound plates were prepared at 3× concentration in assay buffer containing HBSS (no Ca^+2/Mg^−2. Invitrogen) and 0.1% BSA (Sigma-Aldrich). Fluo-4 NW calcium assay dye (Invitrogen) was prepared as per manufacturer's recommendations in assay buffer. B103 cells stably expressing human LPAR1 (J. Chun lab, UCSD) were grown to confluency in DMEM media (Invitrogen) containing 10% FBS (ATCC), […] (Sigma-Aldrich) and […] (Sigma-Aldrich), and detached with Accutase (Sigma-Aldrich) prior to assay. The freshly detached cells were resuspended in growth media and plated in black, clear-bottom 96-well plates (Costar) containing compound (i.e., secondary compound plate) at a density of 5×10^4 cells/well. Once plated, cells were left at room temperature for 30 minutes and then transferred to a 37° C. 5% CO2 incubator for 24 hours. […] Finally, lysophosphatidic acid (18:1) at the EC80 concentration was added and calcium flux measured using FlexStation 3 (Molecular Devices). Sigmoidal dose-response curves were generated by measuring […] over 45 sec and calculating the area under the curve. […]

[7] = grinding time 1 min, mortar and pestle

Structure (SMILES): COc1ccc(NC(=O)N(c2ccccc2C(C)C)[C@H]2CC[C@H](C(=O)O)CC2)c(OC(F)F)n1 [Pattern A, trans-4-(3-(2-(difluoromethoxy)-6-methoxypyridin-3-yl)-1-(2-isopropylphenyl)ureido)cyclohexane-1-carboxylic acid]
- Bulk stability (physical and chemical) ([1]; 25° C./92% RH open container, 40° C./75% RH open container, 60° C. tight container, over 1 week): physically and chemically stable
- Bulk (XRPD) form after storage ([1]; 25° C./92% RH, open container): Pattern A (FIG. 7)
- Color after storage ([1]; 25° C./92% RH, open container): No change
- Bulk (HPLC) purity after storage ([1]; 25° C./92% RH, open container): 99.9%
- Bulk (XRPD) form after storage ([1]; 40° C./75% RH, open container): Pattern A (FIG. 7)
- Color after storage ([1]; 40° C./75% RH, open container): No change
- Bulk (HPLC) purity after storage ([1]; 40° C./75% RH, open container): 99.9%
- Bulk (XRPD) form after storage ([1]; 60° C., tight container): Pattern A (FIG. 7)
- Color after storage ([1]; 60° C., tight container): No change
- Bulk (HPLC) purity after storage ([1]; 60° C., tight container): 99.9%
- Comments (crystallinity after compression) ([2]; 5 MPa): Slight decrease in crystallinity; also recorded: Peaks becoming broader
- XRPD after compression ([2]; 5 MPa): Pattern A
- Comments (crystallinity after compression) ([2]; 10 MPa): Slight decrease in crystallinity; also recorded: Peaks becoming broader
- XRPD after compression ([2]; 10 MPa): Pattern A
- Crystallinity change upon compression ([2]; compression (5 MPa and 10 MPa)): only slight crystallinity decrease
- Form change upon compression ([2]; compression (5 MPa and 10 MPa)): no form change
- 1st desorp. Weight % change ([3]; 0% RH): 0.03%
- 1st sorp. Weight % change ([3]; 0% RH): 0.03%
- 2nd desorp. Weight % change ([3]; 0% RH): 0.00%
- 2nd sorp. Weight % change ([3]; 0% RH): 0.00%
- 1st desorp. Weight % change ([3]; 10% RH): 0.05%
- 1st sorp. Weight % change ([3]; 10% RH): 0.05%
- 2nd desorp. Weight % change ([3]; 10% RH): 0.02%
- 2nd sorp. Weight % change ([3]; 10% RH): 0.02%
- 1st desorp. Weight % change ([3]; 20% RH): 0.05%
- 1st sorp. Weight % change ([3]; 20% RH): 0.05%
- 2nd desorp. Weight % change ([3]; 20% RH): 0.03%
- 2nd sorp. Weight % change ([3]; 20% RH): 0.02%
- 1st desorp. Weight % change ([3]; 30% RH): 0.06%
- 1st sorp. Weight % change ([3]; 30% RH): 0.05%
- 2nd desorp. Weight % change ([3]; 30% RH): 0.03%
- 2nd sorp. Weight % change ([3]; 30% RH): 0.02%
- 1st desorp. Weight % change ([3]; 40% RH): 0.06%
- 1st sorp. Weight % change ([3]; 40% RH): 0.05%
- 2nd desorp. Weight % change ([3]; 40% RH): 0.04%
- 2nd sorp. Weight % change ([3]; 40% RH): 0.03%
- 1st sorp. Weight % change ([3]; 50% RH): 0.06%
- 2nd desorp. Weight % change ([3]; 50% RH): 0.35%
- 1st sorp. Weight % change ([3]; 60% RH): 0.06%
- 2nd desorp. Weight % change ([3]; 60% RH): 0.64%
- 1st sorp. Weight % change ([3]; 70% RH): 0.07%
- 2nd desorp. Weight % change ([3]; 70% RH): 0.84%
- 1st sorp. Weight % change ([3]; 80% RH): 1.15%
- 2nd desorp. Weight % change ([3]; 80% RH): 1.16%
- Hygroscopicity ([3]; 80% RH): slightly hygroscopic
- Water absorbed ([3]; 80% RH): about 1.2%
- 1st sorp. Weight % change ([3]; 90% RH): 1.93%
- 2nd desorp. Weight % change ([3]; 90% RH): 1.93%
- 1st sorp. Weight % change ([3]; 95% RH): 3.06%
- 2nd desorp. Weight % change ([3]; 95% RH): 3.06%
- Hygroscopicity ([3]; 95% RH): hygroscopic
- Water absorbed ([3]; 95% RH): ~3.1%
- XRPD after DVS test ([3]; after cycle 40-0-95-0-40% RH): still Pattern A; also recorded: No form change (FIG. 9)
- Form after manual grinding ([4]; after 3 minutes of grinding with a mortar and pestle): converted to practically amorphous form
- Comments (crystallinity after dry grinding) [4, 7]: Peaks becoming broader; also recorded: Partial amorphization
- XRPD after dry grinding [4, 7]: Pattern A
- XRPD after dry grinding ([4]; grinding time 3 min, mortar and pestle): Almost amorphous
- XRPD after dry grinding ([4]; grinding time 5 min, mortar and pestle): Almost amorphous
- Comments (crystallinity after wet granulation) ([5]; granulation solvent ethanol): Peaks becoming broader; also recorded: Partial amorphization; also recorded: Significant decrease in
- XRPD after wet granulation ([5]; granulation solvent ethanol): Pattern A
- Comments (crystallinity after wet granulation) ([5]; granulation solvent water): Significant decrease in; also recorded: Peaks becoming broader; also recorded: Partial amorphization
- XRPD after wet granulation ([5]; granulation solvent water): Pattern A
- Crystallinity/form upon wet granulation ([5]; wet granulation with ethanol or water): partial amorphization was observed

Structure (SMILES): COc1ccc(NC(=O)N(c2ccccc2C(C)C)[C@H]2CC[C@H](C(=O)O)CC2)c(OC(F)F)n1 [trans-4-(3-(2-(difluoromethoxy)-6-methoxypyridin-3-yl)-1-(2-isopropylphenyl)ureido)cyclohexane-1-carboxylic acid]
- IC50 [6]: 10 nM
